Laboratory results: US9999619B2, “Piperidin-4-yl azetidine derivatives as JAK1 inhibitors” (Incyte Corporation, priority 2010, dated 2018)

Columns and labels:
Type in all cases: biochemical
[1] = molecular target: human JAK1 (a.a. 837-1142) (Homo sapiens, UniProt P23458); test: In vitro JAK kinase assay (HTRF, phosphorylation of a biotinylated peptide), JAK1; conditions: measured at 1 mM ATP
Method in brief: (§1)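 N-terminal His-tagged catalytic domains, baculovirus-expressed in insect cells, phosphorylated a biotinylated peptide for 1 hr at room temperature. EDTA stop was followed by SA-APC and Eu-Py20 antibody for 40 minutes, with phosphopeptide read by HTRF.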

[2] = molecular target: human JAK1 (a.a. 837-1142); test: as above; conditions: ratio of JAK2 IC50 to JAK1 IC50, measured at 1 mM ATP
Method in brief: as §1

Jak2 (a.a. 828-1132) = Jak2 (a.a. 828-1132) (Homo sapiens (Human), UniProt O60674); test: In vitro JAK kinase assay (HTRF, phosphorylation of a biotinylated peptide), JAK2; conditions: measured at 1 mM ATP
Method in brief: as §1

Jak2 (a.a. 828-1132), sequence (O60674 828-1132): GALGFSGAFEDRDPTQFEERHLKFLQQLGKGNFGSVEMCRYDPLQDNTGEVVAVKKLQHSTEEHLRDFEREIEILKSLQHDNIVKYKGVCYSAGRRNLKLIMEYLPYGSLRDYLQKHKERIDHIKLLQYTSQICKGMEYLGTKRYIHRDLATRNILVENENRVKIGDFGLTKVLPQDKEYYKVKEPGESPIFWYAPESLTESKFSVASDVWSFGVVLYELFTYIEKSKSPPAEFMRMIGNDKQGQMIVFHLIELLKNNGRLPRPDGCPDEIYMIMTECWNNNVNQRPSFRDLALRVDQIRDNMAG

IC50 [1] [µM] | IC50 Ratio JAK2/JAK1 [2] | IC50 (Jak2 (a.a. 828-1132)) [µM] | SMILES
≤ 0.005 | 20.3 | 0.05 to 0.1 | N#CCC1(n2ccc(-c3ncnc4[nH]ccc34)c2)CN(C2CCN(C(=O)Nc3cnccc3C(F)(F)F)CC2)C1 [Example 291, 4-{3-(cyanomethyl)-3-[3-(7H-pyrrolo[2,3-d]pyrimidin-4-yl)-1H-pyrrol-1-yl]azetidin-1-yl}-N-[4-(trifluoromethyl)pyridin-3-yl]piperidine-1-carboxamide]
≤ 0.005 | 9.1 | 0.01 to 0.05 | N#CCC1(n2ccc(-c3ncnc4[nH]ccc34)c2)CN(C2CCN(C(=O)Nc3ncccc3F)CC2)C1 [Example 292, 4-{3-(cyanomethyl)-3-[3-(7H-pyrrolo[2,3-d]pyrimidin-4-yl)-1H-pyrrol-1-yl]azetidin-1-yl}-N-(3-fluoropyridin-2-yl)piperidine-1-carboxamide]
≤ 0.005 | 3.4 | 0.01 to 0.05 | N#CCC1(n2ccc(-c3ncnc4[nH]ccc34)c2)CN(C2CCN(C(=O)Nc3ccc(Cl)cc3C#N)CC2)C1 [Example 293, 4-{3-(cyanomethyl)-3-[3-(7H-pyrrolo[2,3-d]pyrimidin-4-yl)-1H-pyrrol-1-yl]azetidin-1-yl}-N-(4-chloro-2-cyanophenyl)piperidine-1-carboxamide]
≤ 0.005 | 4.6 | 0.01 to 0.05 | N#CCC1(n2cc(-c3ccnc4[nH]ccc34)cn2)CN(C2CCN(C(=O)c3ccc(O)c(F)c3)CC2)C1 [Example 296, {1-[1-(3-fluoro-4-hydroxybenzoyl)piperidin-4-yl]-3-[4-(1H-pyrrolo[2,3-b]pyridin-4-yl)-1H-pyrazol-1-yl]azetidin-3-yl}acetonitrile]
≤ 0.005 | 10.0 | ≤ 0.01 | N#CCC1(n2cc(-c3ccnc4[nH]ccc34)cn2)CN(C2CCN(C(=O)c3ccc(O)cc3F)CC2)C1 [Example 297, {1-[1-(2-fluoro-4-hydroxybenzoyl)piperidin-4-yl]-3-[4-(1H-pyrrolo[2,3-b]pyridin-4-yl)-1H-pyrazol-1-yl]azetidin-3-yl}acetonitrile]
0.02 to 0.03 | 2.8 | 0.05 to 0.1 | N#CCC1(n2cc(-c3ccnc4[nH]ccc34)cn2)CN(C2CCN(C(=O)c3cc(C(F)(F)F)ncc3Cl)CC2)C1 [Example 298, {1-{1-[5-chloro-2-(trifluoromethyl)isonicotinoyl]piperidin-4-yl}-3-[4-(1H-pyrrolo[2,3-b]pyridin-4-yl)-1H-pyrazol-1-yl]azetidin-3-yl}acetonitrile]
0.005 to 0.02 | 11.7 | > 0.1 | N#CCC1(n2cc(-c3ccnc4[nH]ccc34)cn2)CN(C2CCN(C(=O)c3cncc(C(F)(F)F)n3)CC2)C1 [Example 300, [3-[4-(1H-pyrrolo[2,3-b]pyridin-4-yl)-1H-pyrazol-1-yl]-1-(1-{[6-(trifluoromethyl)pyrazin-2-yl]carbonyl}piperidin-4-yl)azetidin-3-yl]acetonitrile]
0.02 to 0.03 | 3.3 | 0.05 to 0.1 | N#CCC1(n2cc(-c3ccnc4[nH]ccc34)cn2)CN(C2CCN(C(=O)c3cnc(C(F)(F)F)cn3)CC2)C1 [Example 301, [3-[4-(1H-pyrrolo[2,3-b]pyridin-4-yl)-1H-pyrazol-1-yl]-1-(1-{[5-(trifluoromethyl)pyrazin-2-yl]carbonyl}piperidin-4-yl)azetidin-3-yl]acetonitrile]
0.02 to 0.03 | 6.5 | > 0.1 | N#CCC1(n2cc(-c3ccnc4[nH]ccc34)cn2)CN(C2CCN(C(=O)C3CCC(F)(F)CC3)CC2)C1 [Example 302, {1-{1-[(4,4-fluorocyclohexyl)carbonyl]piperidin-4-yl}-3-[4-(1H-pyrrolo[2,3-b]pyridin-4-yl)-1H-pyrazol-1-yl]azetidin-3-yl}acetonitrile]
≤ 0.005 | 16.0 | 0.05 to 0.1 | N#CCC1(n2cc(-c3ccnc4[nH]ccc34)cn2)CN(C2CCN(C(=O)Nc3ccc(F)cc3Cl)CC2)C1 [Example 305, N-(2-chloro-4-fluorophenyl)-4-{3-(cyanomethyl)-3-[4-(1H-pyrrolo[2,3-b]pyridin-4-yl)-1H-pyrazol-1-yl]azetidin-1-yl}piperidine-1-carboxamide]
0.005 to 0.02 | 8.8 | 0.05 to 0.1 | N#CCC1(n2cc(-c3ccnc4[nH]ccc34)cn2)CN(C2CCN(C(=O)Nc3ccncc3C(F)(F)F)CC2)C1 [Example 307, 4-{3-(cyanomethyl)-3-[4-(1H-pyrrolo[2,3-b]pyridin-4-yl)-1H-pyrazol-1-yl]azetidin-1-yl}-N-[3-(trifluoromethyl)pyridin-4-yl]piperidine-1-carboxamide]
0.005 to 0.02 | 11.1 | > 0.1 | N#CCC1(n2cc(-c3ccnc4[nH]ccc34)cn2)CN(C2CCN(C(=O)Nc3ccc(C#N)cc3C(F)(F)F)CC2)C1 [Example 311, 4-{3-(cyanomethyl)-3-[4-(1H-pyrrolo[2,3-b]pyridin-4-yl)-1H-pyrazol-1-yl]azetidin-1-yl}-N-[4-cyano-2-(trifluoromethyl)phenyl]piperidine-1-carboxamide]
0.005 to 0.02 | 5.3 | 0.05 to 0.1 | N#CCC1(n2cc(-c3ccnc4[nH]ccc34)cn2)CN(C2CCN(C(=O)Nc3ccc(C#N)cc3F)CC2)C1 [Example 312, N-(4-cyano-2-fluorophenyl)-4-{3-(cyanomethyl)-3-[4-(1H-pyrrolo[2,3-b]pyridin-4-yl)-1H-pyrazol-1-yl]azetidin-1-yl}piperidine-1-carboxamide]

The remaining lines, values behind:

SMILES | IC50 [1] [µM] | IC50 Ratio JAK2/JAK1 [2] | IC50 (Jak2 (a.a. 828-1132)) [µM]
N#CCC1(n2cc(-c3ccnc4[nH]ccc34)cn2)CN(C2CCN(C(=O)c3ccc(C#N)cc3F)CC2)C1 [Example 295, 4-[(4-{3-(cyanomethyl)-3-[4-(1H-pyrrolo[2,3-b]pyridin-4-yl)-1H-pyrazol-1-yl]azetidin-1-yl}piperidin-1-yl)carbonyl]-3-fluorobenzonitrile] | 0.005 to 0.02 | 5.1 | 0.01 to 0.05
N#CCC1(n2cc(-c3ccnc4[nH]ccc34)cn2)CN(C2CCN(C(=O)c3ccnc(C(F)(F)F)n3)CC2)C1 [Example 299, [3-[4-(1H-pyrrolo[2,3-b]pyridin-4-yl)-1H-pyrazol-1-yl]-1-(1-{[2-(trifluoromethyl)pyrimidin-4-yl]carbonyl}piperidin-4-yl)azetidin-3-yl]acetonitrile] | 0.02 to 0.03 | 6.6 | > 0.1
N#CCC1(n2cc(-c3ccnc4[nH]ccc34)cn2)CN(C2CCN(C(=O)Nc3ccc(F)cc3C(F)(F)F)CC2)C1 [Example 303, 4-{3-(Cyanomethyl)-3-[4-(1H-pyrrolo[2,3-b]pyridin-4-yl)-1H-pyrazol-1-yl]azetidin-1-yl}-N-[4-fluoro-2-(trifluoromethyl)phenyl]piperidine-1-carboxamide] | ≤ 0.005 | 19.7 | 0.05 to 0.1
N#CCC1(n2cc(-c3ccnc4[nH]ccc34)cn2)CN(C2CCN(C(=O)Nc3ccc(F)cc3F)CC2)C1 [Example 304, 4-{3-(cyanomethyl)-3-{4-(1H-pyrrolo[2,3-b]pyridin-4-yl)-1H-pyrazol-1-yl]azetidin-1-yl}-N-(2,4-difluorophenyl)piperidine-1-carboxamide] | ≤ 0.005 | 10.3 | 0.01 to 0.05
COc1ncccc1NC(=O)N1CCC(N2CC(CC#N)(n3cc(-c4ccnc5[nH]ccc45)cn3)C2)CC1 [Example 306, 4-{3-(cyanomethyl)-3-[4-(1H-pyrrolo[2,3-b]pyridin-4-yl)-1H-pyrazol-1-yl]azetidin-1-yl}-N-(2-methoxypyridin-3-yl)piperidine-1-carboxamide] | 0.005 to 0.02 | 3.5 | 0.01 to 0.05
N#CCC1(n2cc(-c3ccnc4[nH]ccc34)cn2)CN(C2CCN(C(=O)Nc3cnccc3C(F)(F)F)CC2)C1 [Example 308, 4-{3-(cyanomethyl)-3-[4-(1H-pyrrolo[2,3-b]pyridin-4-yl)-1H-pyrazol-1-yl]azetidin-1-yl}-N-[4-(trifluoromethyl)pyridin-3-yl]piperidine-1-carboxamide] | ≤ 0.005 | 10.4 | 0.05 to 0.1
N#CCC1(n2cc(-c3ccnc4[nH]ccc34)cn2)CN(C2CCN(C(=O)Nc3ccccc3F)CC2)C1 [Example 309, 4-{3-(cyanomethyl)-3-[4-(1H-pyrrolo[2,3-b]pyridin-4-yl)-1H-pyrazol-1-yl]azetidin-1-yl}-N-(2-fluorophenyl)piperidine-1-carboxamide] | 0.005 to 0.02 | 5.3 | 0.01 to 0.05
N#CCC1(n2cc(-c3ccnc4[nH]ccc34)cn2)CN(C2CCN(C(=O)Nc3ccccc3Cl)CC2)C1 [Example 310, N-(2-chlorophenyl)-4-{3-(cyanomethyl)-3-[4-(1H-pyrrolo[2,3-b]pyridin-4-yl)-1H-pyrazol-1-yl]azetidin-1-yl}piperidine-1-carboxamide] | ≤ 0.005 | 9.0 | 0.01 to 0.05
N#CCC1(n2cc(-c3ccnc4[nH]ccc34)cn2)CN(C2CCN(C(=O)Nc3ccc(C#N)cc3Cl)CC2)C1 [Example 313, N-(2-chloro-4-cyanophenyl)-4-{3-(cyanomethyl)-3-[4-(1H-pyrrolo[2,3-b]pyridin-4-yl)-1H-pyrazol-1-yl]azetidin-1-yl}piperidine-1-carboxamide] | ≤ 0.005 | 14.3 | 0.01 to 0.05
N#CCC1(n2cc(-c3c(F)cnc4[nH]ccc34)cn2)CN(C2CCN(C(=O)c3ccnc(C(F)(F)F)c3F)CC2)C1 [Example 314, (3-[4-(5-Fluoro-1H-pyrrolo[2,3-b]pyridin-4-yl)-1H-pyrazol-1-yl]-1-{1-[3-fluoro-2-(trifluoromethyl)isonicotinoyl]piperidin-4-yl}azetidin-3-yl)acetonitrile] | ≤ 0.005 | 11.0 | 0.01 to 0.05
